In the assay the test system is MV-4-11 cells. As to the kind of experiment: Gene expression microarray analysis (Affymetrix PrimeView) and GSEA. Type of assay: cell-based, human. Further details: RFU PODN (11730768_x_at) / Fold change /veh PODN (11730768_x_at) / RFU LINC00158 (11744669_a_at) / Fold change /veh LINC00158 (11744669_a_at) / RFU DUSP10 (11751237_a_at) / Fold change /veh DUSP10 (11751237_a_at) / RFU ID3 (11757404_x_at) / Fold change /veh ID3 (11757404_x_at) / RFU PLEKHG5 (11737974_s_at) / Fold change /veh PLEKHG5 (11737974_s_at) / RFU LRRC4B (11730491_at) / Fold change /veh LRRC4B (11730491_at) / RFU GIMAP4 (11747438_a_at) / Fold change /veh GIMAP4 (11747438_a_at) / RFU KRT8 (11758183_x_at) / Fold change /veh KRT8 (11758183_x_at) / RFU CNN1 (11734310_a_at) / Fold change /veh CNN1 (11734310_a_at) / RFU VPS37D (11726825_at) / Fold change /veh VPS37D (11726825_at) / RFU C10orf10 (11716522_x_at) / Fold change /veh C10orf10 (11716522_x_at) / RFU KIR2DL2 /// KIR2DL4 /// KIR2DL5A /// KIR2DL5B /// KIR2DS1 /// KIR2DS2 /// KIR2DS3 /// KIR2DS4 /// KIR3DL3 /// KIR3DL3 /// KIR3DS1 (11738374_at) / Fold change /veh KIR2DL2 /// KIR2DL4 /// KIR2DL5A /// KIR2DL5B /// KIR2DS1 /// KIR2DS2 /// KIR2DS3 /// KIR2DS4 /// KIR3DL3 /// KIR3DL3 /// KIR3DS1 (11738374_at) / RFU C1QL1 (11718748_at) / Fold change /veh C1QL1 (11718748_at) / RFU TMPRSS4 (11747572_a_at) / Fold change /veh TMPRSS4 (11747572_a_at) / RFU HAMP (11756126_x_at) / Fold change /veh HAMP (11756126_x_at) / RFU RNFT2 (11725882_a_at) / Fold change /veh RNFT2 (11725882_a_at) / RFU NR4A2 (11747474_a_at) / Fold change /veh NR4A2 (11747474_a_at) / RFU ABCC12 (11746883_a_at) / Fold change /veh ABCC12 (11746883_a_at) / RFU TMEM136 (11760407_x_at) / Fold change /veh TMEM136 (11760407_x_at) / RFU CLDN22 /// WWC2 (11732394_at) / Fold change /veh CLDN22 /// WWC2 (11732394_at) / RFU HLA-DPB1 (11760878_x_at) / Fold change /veh HLA-DPB1 (11760878_x_at) / RFU SPINT1 (11716480_a_at) / Fold change /veh SPINT1 (11716480_a_at) / RFU GAP43 (11754022_s_at) / Fold change /veh GAP43 (11754022_s_at) / RFU A4GNT (11735810_at) / Fold change /veh A4GNT (11735810_at) / RFU PRB3 (11715151_x_at) / Fold change /veh PRB3 (11715151_x_at) / RFU TUBB4B (11761932_at) / Fold change /veh TUBB4B (11761932_at) / RFU CAPN14 (11732068_a_at) / Fold change /veh CAPN14 (11732068_a_at) / RFU TMCC2 (11721928_a_at) / Fold change /veh TMCC2 (11721928_a_at) / RFU IRGQ (11745062_a_at) / Fold change /veh IRGQ (11745062_a_at) / RFU FAM174B (11720279_a_at) / Fold change /veh FAM174B (11720279_a_at) / RFU TMPRSS4 (11748680_a_at) / Fold change /veh TMPRSS4 (11748680_a_at) / RFU FAM212B (11763350_a_at) / Fold change /veh FAM212B (11763350_a_at) / RFU PLEKHG5 (11743358_a_at) / Fold change /veh PLEKHG5 (11743358_a_at) / RFU ZSCAN30 (11745921_a_at) / Fold change /veh ZSCAN30 (11745921_a_at) / RFU CMKLR1 (11741424_a_at) / Fold change /veh CMKLR1 (11741424_a_at) / RFU LOC101060620 /// MAPK8IP1 (11723275_at) / Fold change /veh LOC101060620 /// MAPK8IP1 (11723275_at) / RFU SPTSSB (11747773_x_at) / Fold change /veh SPTSSB (11747773_x_at) / RFU PRSS12 (11739890_at) / Fold change /veh PRSS12 (11739890_at) / RFU BIN1 (11741810_x_at) / Fold change /veh BIN1 (11741810_x_at) / RFU WNT11 (11732464_a_at) / Fold change /veh WNT11 (11732464_a_at) / RFU C10orf10 (11716521_a_at) / Fold change /veh C10orf10 (11716521_a_at) / RFU C5orf56 (11738089_at) / Fold change /veh C5orf56 (11738089_at) / RFU CYB561 (11721691_x_at) / Fold change /veh CYB561 (11721691_x_at) / RFU ANKRD19P (11752326_a_at) / Fold change /veh ANKRD19P (11752326_a_at) / RFU OR2T12 /// OR2T33 /// OR2T8 (11738714_s_at) / Fold change /veh OR2T12 /// OR2T33 /// OR2T8 (11738714_s_at) / RFU VCAN (11748164_a_at) / Fold change /veh VCAN (11748164_a_at) / RFU JSRP1 (11732532_at) / Fold change /veh JSRP1 (11732532_at) / RFU KRTAP10-11 (11738290_x_at) / Fold change /veh KRTAP10-11 (11738290_x_at) / RFU MYO3A (11730013_a_at) / Fold change /veh MYO3A (11730013_a_at) / RFU EBF3 (11725865_a_at) / Fold change /veh EBF3 (11725865_a_at) / RFU CAMK2N1 (11719241_x_at) / Fold change /veh CAMK2N1 (11719241_x_at) / RFU C5orf56 (11738088_a_at) / Fold change /veh C5orf56 (11738088_a_at) / RFU OLFML3 (11715873_a_at) / Fold change /veh OLFML3 (11715873_a_at) / RFU LOC100653217 /// NTM (11731650_a_at) / Fold change /veh LOC100653217 /// NTM (11731650_a_at) / RFU MAPK11 (11762145_a_at) / Fold change /veh MAPK11 (11762145_a_at) / RFU FIZ1 (11724087_x_at) / Fold change /veh FIZ1 (11724087_x_at) / RFU OASL (11726364_x_at) / Fold change /veh OASL (11726364_x_at) / RFU SOX15 (11748057_x_at) / Fold change /veh SOX15 (11748057_x_at) / RFU CD79A (11719716_a_at) / Fold change /veh CD79A (11719716_a_at) / RFU HIST1H1D (11736915_at) / Fold change /veh HIST1H1D (11736915_at) / RFU CASKIN2 (11723855_a_at) / Fold change /veh CASKIN2 (11723855_a_at) / RFU LOC730098 (11760151_x_at) / Fold change /veh LOC730098 (11760151_x_at) / RFU OR4N2 (11742367_at) / Fold change /veh OR4N2 (11742367_at) / RFU PRRT2 (11749266_a_at) / Fold change /veh PRRT2 (11749266_a_at) / RFU SNX32 (11753110_a_at) / Fold change /veh SNX32 (11753110_a_at) / RFU CDHR5 (11726645_a_at) / Fold change /veh CDHR5 (11726645_a_at) / RFU RCAN1 (11760418_a_at) / Fold change /veh RCAN1 (11760418_a_at) / RFU FAM167A (11723789_a_at) / Fold change /veh FAM167A (11723789_a_at) / RFU FAM26E (11764081_at) / Fold change /veh FAM26E (11764081_at) / RFU ISYNA1 (11749810_s_at) / Fold change /veh ISYNA1 (11749810_s_at) / RFU ACY1 (11761880_at) / Fold change /veh ACY1 (11761880_at) / RFU 11764098_at / Fold change /veh 11764098_at / RFU SAMD14 (11745864_x_at) / Fold change /veh SAMD14 (11745864_x_at) / RFU NPB (11741838_a_at) / Fold change /veh NPB (11741838_a_at) / RFU TMPRSS6 (11731388_a_at) / Fold change /veh TMPRSS6 (11731388_a_at) / RFU KRTAP10-2 (11738614_at) / Fold change /veh KRTAP10-2 (11738614_at) / RFU ARHGAP8 /// PRR5-ARHGAP8 (11727945_x_at) / Fold change /veh ARHGAP8 /// PRR5-ARHGAP8 (11727945_x_at) / RFU KRTAP5-7 /// NADSYN1 (11734609_at) / Fold change /veh KRTAP5-7 /// NADSYN1 (11734609_at) / RFU RASL12 (11751679_a_at) / Fold change /veh RASL12 (11751679_a_at) / RFU CDKN2B (11736163_a_at) / Fold change /veh CDKN2B (11736163_a_at) / RFU PRF1 (11729649_at) / Fold change /veh PRF1 (11729649_at) / RFU, ZNF638 /// ZNF638-IT1 / Fold change vs veh, ZNF638 /// ZNF638-IT1 / RFU, PANK3 / Fold change vs veh, PANK3 / RFU, SH3YL1 / Fold change vs veh, SH3YL1 / RFU, ZEB2 / Fold change vs veh, ZEB2 / RFU, NRIP1 / Fold change vs veh, NRIP1 / RFU, PTTG1IP / Fold change vs veh, PTTG1IP / RFU, CAPN2 / Fold change vs veh, CAPN2 / RFU, MED14 / Fold change vs veh, MED14 / RFU, SNORA58 / Fold change vs veh, SNORA58 / RFU, C1orf63 / Fold change vs veh, C1orf63 / RFU, LRRFIP1 / Fold change vs veh, LRRFIP1 / RFU, NDUFAF7 / Fold change vs veh, NDUFAF7 / RFU, SLC12A2 / Fold change vs veh, SLC12A2 / RFU, IBTK / Fold change vs veh, IBTK / RFU, ESF1 / Fold change vs veh, ESF1 / Fold change vs veh, TMEM50B / RFU, TAOK1 / Fold change vs veh, TAOK1 / RFU, ACBD3 / Fold change vs veh, ACBD3 / RFU, TMA16 / Fold change vs veh, TMA16 / RFU, RWDD3 / Fold change vs veh, RWDD3 / RFU, BCAT1 / Fold change vs veh, BCAT1 / RFU, EDEM3 / Fold change vs veh, EDEM3 / RFU, TMEM33 / Fold change vs veh, TMEM33 / RFU, WDR75 / Fold change vs veh, WDR75 / RFU, AHCTF1 / Fold change vs veh, AHCTF1 / RFU, TFRC / Fold change vs veh, TFRC / RFU, ZDHHC17 / Fold change vs veh, ZDHHC17 / RFU, NOM1 / Fold change vs veh, NOM1 / RFU, ARL8B / Fold change vs veh, ARL8B / RFU, ZBTB11 / Fold change vs veh, ZBTB11 / RFU, TAMM41 / Fold change vs veh, TAMM41 / RFU, KIAA1704 /// LOC100996395 / Fold change vs veh, KIAA1704 /// LOC100996395 / RFU, ING1 / Fold change vs veh, ING1 / RFU, TRMT61B / Fold change vs veh, TRMT61B / RFU, FUBP3 / Fold change vs veh, FUBP3 / RFU, TP53 / Fold change vs veh, TP53 / RFU, TNKS2 / Fold change vs veh, TNKS2 / RFU, ZFP14 / Fold change vs veh, ZFP14 / RFU, ACTR2 / Fold change vs veh, ACTR2 / RFU, PPP3R1 / Fold change vs veh, PPP3R1 / RFU, PIK3R1 / Fold change vs veh, PIK3R1 / RFU, HNRNPA1 / Fold change vs veh, HNRNPA1 / RFU, RNF170 / Fold change vs veh, RNF170 / RFU, ZNF28 / Fold change vs veh, ZNF28 / RFU, RNGTT / Fold change vs veh, RNGTT / RFU, OGT / Fold change vs veh, OGT / RFU, BRD1 / Fold change vs veh, BRD1 / RFU, MARS / Fold change vs veh, MARS / RFU, ZNF655 / Fold change vs veh, ZNF655 / RFU, FAHD1 / Fold change vs veh, FAHD1 / RFU, BDP1 / Fold change vs veh, BDP1 / RFU, LRRCC1 / Fold change vs veh, LRRCC1 / RFU, ARID1A / Fold change vs veh, ARID1A / RFU, ZNF146 / Fold change vs veh, ZNF146 / RFU, ZNF330 / Fold change vs veh, ZNF330 / RFU, GPN3 / Fold change vs veh, GPN3 / RFU, C9orf123 / Fold change vs veh, C9orf123 / RFU, N4BP2L2 / Fold change vs veh, N4BP2L2 / RFU, ARFIP1 / Fold change vs veh, ARFIP1 / RFU, FAM179B / Fold change vs veh, FAM179B / RFU, BCL10 / Fold change vs veh, BCL10 / RFU, UHRF1BP1L / Fold change vs veh, UHRF1BP1L / RFU, BET1 / Fold change vs veh, BET1 / RFU, CNOT2 / Fold change vs veh, CNOT2 / RFU, ZNF268 / Fold change vs veh, ZNF268 / Fold change vs veh, ZNF507 / RFU, DGCR2 / Fold change vs veh, DGCR2 / RFU, WDSUB1 / Fold change vs veh, WDSUB1 / Fold change vs veh, HSP90B1 /// MIR3652 / RFU, ADSS / Fold change vs veh, ADSS / RFU, GK / Fold change vs veh, GK / RFU, ZNF148 / Fold change vs veh, ZNF148 / RFU, TAF9 / Fold change vs veh, TAF9 / RFU, SLC1A5 / Fold change vs veh, SLC1A5 / RFU, SLMO2 / Fold change vs veh, SLMO2 / RFU, ABCC4 / Fold change vs veh, ABCC4 / RFU, LOC101060439 /// RAP1B / Fold change vs veh, LOC101060439 /// RAP1B / RFU, RFX7 / Fold change vs veh, RFX7 / RFU, GTPBP10 / Fold change vs veh, GTPBP10 / RFU, CNEP1R1 / Fold change vs veh, CNEP1R1 / RFU, BIVM-ERCC5 /// ERCC5 / Fold change vs veh, BIVM-ERCC5 /// ERCC5 / RFU, ILF3 / Fold change vs veh, ILF3 / RFU 11762660_at / Fold change /veh 11762660_at / RFU VCAN (11757783_s_at) / Fold change /veh VCAN (11757783_s_at) / RFU DDX43 (11728927_at) / Fold change /veh DDX43 (11728927_at) / RFU KRT8 (11758188_x_at) / Fold change /veh KRT8 (11758188_x_at) / RFU NKD1 (11759106_at) / Fold change /veh NKD1 (11759106_at) / RFU SRD5A1 (11742802_a_at) / Fold change /veh SRD5A1 (11742802_a_at) / RFU TPSAB1 /// TPSB2 (11721975_s_at) / Fold change /veh TPSAB1 /// TPSB2 (11721975_s_at) / RFU GSTM3 (11746129_a_at) / Fold change /veh GSTM3 (11746129_a_at) / RFU IL23R (11737362_x_at) / Fold change /veh IL23R (11737362_x_at) / RFU TMEM51 (11727254_a_at) / Fold change /veh TMEM51 (11727254_a_at) / RFU PIWIL2 (11732686_x_at) / Fold change /veh PIWIL2 (11732686_x_at) / RFU ORM1 (11744905_x_at) / Fold change /veh ORM1 (11744905_x_at) / RFU CCDC152 (11743942_at) / Fold change /veh CCDC152 (11743942_at) / RFU ECM1 (11717891_a_at) / Fold change /veh ECM1 (11717891_a_at) / RFU IL23R (11748794_a_at) / Fold change /veh IL23R (11748794_a_at) / RFU TNFAIP8L3 (11732012_x_at) / Fold change /veh TNFAIP8L3 (11732012_x_at) / RFU MBOAT4 (11741988_at) / Fold change /veh MBOAT4 (11741988_at) / RFU 11764193_at / Fold change /veh 11764193_at / RFU TMEM53 (11763286_at) / Fold change /veh TMEM53 (11763286_at) / RFU MAGEB2 (11727129_at) / Fold change /veh MAGEB2 (11727129_at) / RFU TMEM200A (11744735_a_at) / Fold change /veh TMEM200A (11744735_a_at) / RFU CCDC152 (11751479_a_at) / Fold change /veh CCDC152 (11751479_a_at) / RFU FAM211A (11726209_a_at) / Fold change /veh FAM211A (11726209_a_at) / RFU RGS16 (11746705_a_at) / Fold change /veh RGS16 (11746705_a_at) / RFU VCAN (11755009_s_at) / Fold change /veh VCAN (11755009_s_at) / RFU RHOB (11743442_s_at) / Fold change /veh RHOB (11743442_s_at) / RFU RGS16 (11720943_a_at) / Fold change /veh RGS16 (11720943_a_at) / RFU RGS16 (11720944_at) / Fold change /veh RGS16 (11720944_at) / RFU, VPS4B / Fold change vs veh, VPS4B / RFU, CREB1 / Fold change vs veh, CREB1 / RFU, DNAJC13 / Fold change vs veh, DNAJC13 / RFU, GNAQ / Fold change vs veh, GNAQ / RFU, CDK5R1 / Fold change vs veh, CDK5R1 / RFU, ZRANB3 / Fold change vs veh, ZRANB3 / RFU, CUL4A / Fold change vs veh, CUL4A / RFU, CCNY / Fold change vs veh, CCNY / RFU, UFL1 / Fold change vs veh, UFL1 / RFU, COG3 / Fold change vs veh, COG3 / RFU, DIAPH2 / Fold change vs veh, DIAPH2 / RFU, SKA2 / Fold change vs veh, SKA2 / RFU, AFF3 / Fold change vs veh, AFF3 / RFU, LMF1 / Fold change vs veh, LMF1 / RFU, IPO11 / Fold change vs veh, IPO11 / RFU, DFFB / Fold change vs veh, DFFB / RFU, FOXP1 / Fold change vs veh, FOXP1 / RFU, CARD8 / Fold change vs veh, CARD8 / RFU, STRN3 / Fold change vs veh, STRN3 / RFU, ADK / Fold change vs veh, ADK / RFU, RASSF2 / Fold change vs veh, RASSF2 / RFU, WIPF1 / Fold change vs veh, WIPF1 / RFU, LARP1B / Fold change vs veh, LARP1B / RFU, RASA1 / Fold change vs veh, RASA1 / RFU, RB1 / Fold change vs veh, RB1 / RFU, PPFIA1 / Fold change vs veh, PPFIA1 / RFU, MAT2A / Fold change vs veh, MAT2A / RFU, CCT5 / Fold change vs veh, CCT5 / RFU, WDR92 / Fold change vs veh, WDR92 / RFU, CUX1 / Fold change vs veh, CUX1 / RFU, TTC7A / Fold change vs veh, TTC7A / RFU, TMEM135 / Fold change vs veh, TMEM135 / RFU, DEPTOR / Fold change vs veh, DEPTOR / RFU, CPM / Fold change vs veh, CPM / RFU, DNAJB6 / Fold change vs veh, DNAJB6 / RFU, CACNA2D3 / Fold change vs veh, CACNA2D3 / RFU, DTX4 / Fold change vs veh, DTX4 / RFU, TFCP2 / Fold change vs veh, TFCP2 / RFU, GMCL1 /// GMCL1P1 / Fold change vs veh, GMCL1 /// GMCL1P1 / RFU, AEBP2 / Fold change vs veh, AEBP2 / RFU, SNHG1 /// SNORD22 /// SNORD25 /// SNORD26 /// SNORD27 /// SNORD28 /// SNORD29 /// SNORD31 / Fold change vs veh, SNHG1 /// SNORD22 /// SNORD25 /// SNORD26 /// SNORD27 /// SNORD28 /// SNORD29 /// SNORD31 / Fold change (Aza/veh), C12orf56 (ProbeSet 11735607_a_at) / Fold change (ACY-1035/veh), C12orf56 (ProbeSet 11735607_a_at) / Fold change (Aza/veh), FGFR1OP (ProbeSet 11751329_s_at) / Fold change (ACY-1035/veh), FGFR1OP (ProbeSet 11751329_s_at) / Fold change (Aza/veh), VPS36 (ProbeSet 11739960_a_at) / Fold change (ACY-1035/veh), VPS36 (ProbeSet 11739960_a_at) / RFU SYPL1 (11715823_x_at) / Fold change /veh SYPL1 (11715823_x_at) / RFU IGFBP7 (11715501_s_at) / Fold change /veh IGFBP7 (11715501_s_at) / RFU REEP3 (11722064_at) / Fold change /veh REEP3 (11722064_at) / RFU IGLL1 (11728026_x_at) / Fold change /veh IGLL1 (11728026_x_at): dose or concentration left out as unconfirmed. Conditions: ProbeSet 11729173_a_at; LIST D.

Molecules are shown by their SMILES.

For the compound `Nc1ncn([C@@H]2O[C@H](CO)[C@@H](O)[C@H]2O)c(=O)n1` [azacitidine], the “Fold change vs veh, SKA2” value amounted to 0.81.

The record behind these values is article PMC5218480 (PLoS ONE, 2017).
